Data as given in ChEMBL document CHEMBL5653615 (J Biol Chem, 2013).

Tests used:
[1] = molecular target: T1, NUAK family SNF1-like kinase 2 (Homo sapiens) (UniProt Q9H093); assay: Inhibition of human NUAK2 at 18.6 nM by HotSpot assay relative to control
T1 sequence (whole entry): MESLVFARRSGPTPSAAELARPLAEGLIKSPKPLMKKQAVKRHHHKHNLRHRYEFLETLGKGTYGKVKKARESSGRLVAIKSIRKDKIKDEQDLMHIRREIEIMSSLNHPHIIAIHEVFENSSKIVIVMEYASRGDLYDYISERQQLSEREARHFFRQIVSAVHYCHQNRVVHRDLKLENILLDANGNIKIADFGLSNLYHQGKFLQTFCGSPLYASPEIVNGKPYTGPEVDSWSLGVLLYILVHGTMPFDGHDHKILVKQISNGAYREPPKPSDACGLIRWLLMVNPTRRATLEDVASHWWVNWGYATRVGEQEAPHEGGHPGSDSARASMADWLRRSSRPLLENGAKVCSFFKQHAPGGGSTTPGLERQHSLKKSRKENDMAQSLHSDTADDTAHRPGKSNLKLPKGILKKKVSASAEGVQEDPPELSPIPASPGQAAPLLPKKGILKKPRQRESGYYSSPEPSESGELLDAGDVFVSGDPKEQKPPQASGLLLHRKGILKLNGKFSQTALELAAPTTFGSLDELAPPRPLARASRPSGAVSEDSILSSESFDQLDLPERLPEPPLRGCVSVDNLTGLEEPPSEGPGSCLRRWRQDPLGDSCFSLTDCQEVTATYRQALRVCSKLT

[2] = molecular target: T2, Aurora kinase A (Homo sapiens) (UniProt O14965); assay: Inhibition of human Aurora A at 18.6 nM by HotSpot assay relative to control
T2 sequence (whole entry): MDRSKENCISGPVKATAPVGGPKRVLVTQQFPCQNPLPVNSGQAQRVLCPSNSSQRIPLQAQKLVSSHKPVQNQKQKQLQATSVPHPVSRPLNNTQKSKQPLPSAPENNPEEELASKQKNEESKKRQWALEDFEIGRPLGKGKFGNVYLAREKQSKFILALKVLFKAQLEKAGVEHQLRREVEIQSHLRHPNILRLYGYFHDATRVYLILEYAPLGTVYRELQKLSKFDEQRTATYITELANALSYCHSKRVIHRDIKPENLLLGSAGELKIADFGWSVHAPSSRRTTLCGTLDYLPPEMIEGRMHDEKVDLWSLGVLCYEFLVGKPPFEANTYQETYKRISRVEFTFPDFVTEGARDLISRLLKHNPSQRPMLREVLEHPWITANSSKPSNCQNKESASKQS

[3] = molecular target: Protein-tyrosine kinase 2-beta (Homo sapiens) (UniProt Q14289); assay: Inhibition of human PYK2 at 1.82 nM by HotSpot assay relative to control
[4] = molecular target: T3, Discoidin domain-containing receptor 2 (Homo sapiens) (UniProt Q16832); assay: Inhibition of human DDR2 at 1.82 nM by HotSpot assay relative to control
T3 sequence (whole entry): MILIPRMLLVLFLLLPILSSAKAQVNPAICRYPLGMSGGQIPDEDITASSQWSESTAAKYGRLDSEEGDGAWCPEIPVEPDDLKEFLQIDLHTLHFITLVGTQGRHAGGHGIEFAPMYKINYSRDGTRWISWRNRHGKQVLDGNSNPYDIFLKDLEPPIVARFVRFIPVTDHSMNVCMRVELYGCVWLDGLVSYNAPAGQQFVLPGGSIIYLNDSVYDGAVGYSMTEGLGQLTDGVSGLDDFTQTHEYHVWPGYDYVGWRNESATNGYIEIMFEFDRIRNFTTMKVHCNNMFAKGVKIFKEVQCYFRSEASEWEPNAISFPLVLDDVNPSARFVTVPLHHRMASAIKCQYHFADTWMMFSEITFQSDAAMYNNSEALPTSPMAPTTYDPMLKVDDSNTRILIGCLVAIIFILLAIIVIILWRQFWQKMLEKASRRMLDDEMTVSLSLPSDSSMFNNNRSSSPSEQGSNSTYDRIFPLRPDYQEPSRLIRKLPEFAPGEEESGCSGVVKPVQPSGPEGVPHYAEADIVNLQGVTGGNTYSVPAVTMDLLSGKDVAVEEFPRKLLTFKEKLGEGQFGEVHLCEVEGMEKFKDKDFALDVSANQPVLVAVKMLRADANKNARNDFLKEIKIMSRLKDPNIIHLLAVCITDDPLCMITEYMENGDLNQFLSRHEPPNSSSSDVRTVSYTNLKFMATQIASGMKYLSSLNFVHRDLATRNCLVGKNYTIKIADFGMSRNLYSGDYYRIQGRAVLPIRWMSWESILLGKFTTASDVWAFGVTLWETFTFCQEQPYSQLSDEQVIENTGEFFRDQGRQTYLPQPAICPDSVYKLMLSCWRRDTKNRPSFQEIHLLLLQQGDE

[5] = molecular target: LIM domain kinase 1 (Homo sapiens) (UniProt P53667); assay: Inhibition of human LIMK1 at 1.82 nM by HotSpot assay relative to control
[6] = molecular target: RAC-alpha serine/threonine-protein kinase (Homo sapiens) (UniProt P31749); assay: Inhibition of human AKT1 at 1.82 nM by HotSpot assay relative to control
[7] = molecular target: Vascular endothelial growth factor receptor 3 (Homo sapiens) (UniProt P35916); assay: Inhibition of human FLT4 at 1.82 nM by HotSpot assay relative to control
[8] = molecular target: Platelet-derived growth factor receptor alpha (Homo sapiens) (UniProt P16234); assay: Inhibition of human PDGFRa at 1.82 nM by HotSpot assay relative to control
Chain of Platelet-derived growth factor receptor alpha (Homo sapiens) (P16234 whole entry): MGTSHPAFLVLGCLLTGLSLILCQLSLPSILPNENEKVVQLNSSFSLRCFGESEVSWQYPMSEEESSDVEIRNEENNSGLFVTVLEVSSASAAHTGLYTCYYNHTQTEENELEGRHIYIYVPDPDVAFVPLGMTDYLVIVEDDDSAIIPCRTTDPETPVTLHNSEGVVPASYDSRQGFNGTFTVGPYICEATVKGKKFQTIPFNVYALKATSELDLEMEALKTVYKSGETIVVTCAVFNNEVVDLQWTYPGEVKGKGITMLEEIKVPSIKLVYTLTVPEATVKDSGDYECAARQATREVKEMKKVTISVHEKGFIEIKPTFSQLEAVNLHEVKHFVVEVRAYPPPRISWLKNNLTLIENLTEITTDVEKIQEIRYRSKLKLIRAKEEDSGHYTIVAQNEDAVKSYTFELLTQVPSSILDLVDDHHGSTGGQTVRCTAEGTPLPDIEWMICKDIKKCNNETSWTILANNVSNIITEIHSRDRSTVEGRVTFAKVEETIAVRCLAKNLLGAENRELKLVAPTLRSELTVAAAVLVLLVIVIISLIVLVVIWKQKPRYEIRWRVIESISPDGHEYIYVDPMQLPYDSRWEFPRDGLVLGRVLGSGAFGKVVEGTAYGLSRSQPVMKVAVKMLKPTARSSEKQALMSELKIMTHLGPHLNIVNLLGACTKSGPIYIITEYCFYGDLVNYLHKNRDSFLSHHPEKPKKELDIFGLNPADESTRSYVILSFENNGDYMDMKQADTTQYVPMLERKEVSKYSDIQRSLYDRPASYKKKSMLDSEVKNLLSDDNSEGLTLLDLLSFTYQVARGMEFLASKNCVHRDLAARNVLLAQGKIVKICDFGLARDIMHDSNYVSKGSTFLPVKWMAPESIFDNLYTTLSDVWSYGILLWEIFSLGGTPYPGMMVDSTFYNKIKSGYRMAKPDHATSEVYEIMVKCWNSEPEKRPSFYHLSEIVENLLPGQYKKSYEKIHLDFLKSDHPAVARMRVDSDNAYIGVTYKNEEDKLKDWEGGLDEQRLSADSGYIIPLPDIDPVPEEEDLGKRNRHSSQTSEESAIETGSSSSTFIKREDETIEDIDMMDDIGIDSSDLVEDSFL

Chain of Vascular endothelial growth factor receptor 3 (Homo sapiens) (P35916 whole entry): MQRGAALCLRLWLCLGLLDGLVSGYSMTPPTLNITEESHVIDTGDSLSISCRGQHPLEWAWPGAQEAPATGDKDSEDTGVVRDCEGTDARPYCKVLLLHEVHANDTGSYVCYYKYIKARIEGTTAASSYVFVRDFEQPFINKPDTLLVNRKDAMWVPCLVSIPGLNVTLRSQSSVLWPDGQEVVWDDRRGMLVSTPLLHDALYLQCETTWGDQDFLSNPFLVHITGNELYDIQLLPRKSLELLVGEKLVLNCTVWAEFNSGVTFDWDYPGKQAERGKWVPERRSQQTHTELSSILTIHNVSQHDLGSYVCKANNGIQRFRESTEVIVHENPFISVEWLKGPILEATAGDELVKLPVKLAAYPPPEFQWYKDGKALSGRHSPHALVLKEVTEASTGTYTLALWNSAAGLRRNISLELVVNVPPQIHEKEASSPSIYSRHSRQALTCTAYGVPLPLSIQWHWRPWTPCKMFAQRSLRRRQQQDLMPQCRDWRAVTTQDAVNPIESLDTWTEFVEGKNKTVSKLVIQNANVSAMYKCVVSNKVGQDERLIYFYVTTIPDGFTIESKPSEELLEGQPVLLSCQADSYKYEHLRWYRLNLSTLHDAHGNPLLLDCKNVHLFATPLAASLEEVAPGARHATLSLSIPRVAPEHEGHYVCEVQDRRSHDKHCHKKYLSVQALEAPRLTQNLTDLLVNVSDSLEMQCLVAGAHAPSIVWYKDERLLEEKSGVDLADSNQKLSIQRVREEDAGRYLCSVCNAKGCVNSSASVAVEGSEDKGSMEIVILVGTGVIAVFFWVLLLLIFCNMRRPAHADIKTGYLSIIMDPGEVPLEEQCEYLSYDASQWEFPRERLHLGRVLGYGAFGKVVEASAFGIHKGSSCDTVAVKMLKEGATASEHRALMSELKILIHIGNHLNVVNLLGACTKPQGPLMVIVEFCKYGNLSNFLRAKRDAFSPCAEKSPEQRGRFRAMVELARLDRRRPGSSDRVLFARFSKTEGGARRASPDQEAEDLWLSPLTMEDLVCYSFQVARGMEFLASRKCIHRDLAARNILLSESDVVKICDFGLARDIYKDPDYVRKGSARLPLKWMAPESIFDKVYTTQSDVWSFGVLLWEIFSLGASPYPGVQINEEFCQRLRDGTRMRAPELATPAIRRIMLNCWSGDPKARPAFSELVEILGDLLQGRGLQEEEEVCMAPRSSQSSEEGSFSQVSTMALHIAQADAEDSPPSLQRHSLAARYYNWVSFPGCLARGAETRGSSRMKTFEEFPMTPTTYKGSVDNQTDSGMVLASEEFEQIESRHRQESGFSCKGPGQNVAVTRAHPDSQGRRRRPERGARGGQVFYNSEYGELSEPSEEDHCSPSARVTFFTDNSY
Chain of Protein-tyrosine kinase 2-beta (Homo sapiens) (Q14289 whole entry, looked up, the tested form may be a part): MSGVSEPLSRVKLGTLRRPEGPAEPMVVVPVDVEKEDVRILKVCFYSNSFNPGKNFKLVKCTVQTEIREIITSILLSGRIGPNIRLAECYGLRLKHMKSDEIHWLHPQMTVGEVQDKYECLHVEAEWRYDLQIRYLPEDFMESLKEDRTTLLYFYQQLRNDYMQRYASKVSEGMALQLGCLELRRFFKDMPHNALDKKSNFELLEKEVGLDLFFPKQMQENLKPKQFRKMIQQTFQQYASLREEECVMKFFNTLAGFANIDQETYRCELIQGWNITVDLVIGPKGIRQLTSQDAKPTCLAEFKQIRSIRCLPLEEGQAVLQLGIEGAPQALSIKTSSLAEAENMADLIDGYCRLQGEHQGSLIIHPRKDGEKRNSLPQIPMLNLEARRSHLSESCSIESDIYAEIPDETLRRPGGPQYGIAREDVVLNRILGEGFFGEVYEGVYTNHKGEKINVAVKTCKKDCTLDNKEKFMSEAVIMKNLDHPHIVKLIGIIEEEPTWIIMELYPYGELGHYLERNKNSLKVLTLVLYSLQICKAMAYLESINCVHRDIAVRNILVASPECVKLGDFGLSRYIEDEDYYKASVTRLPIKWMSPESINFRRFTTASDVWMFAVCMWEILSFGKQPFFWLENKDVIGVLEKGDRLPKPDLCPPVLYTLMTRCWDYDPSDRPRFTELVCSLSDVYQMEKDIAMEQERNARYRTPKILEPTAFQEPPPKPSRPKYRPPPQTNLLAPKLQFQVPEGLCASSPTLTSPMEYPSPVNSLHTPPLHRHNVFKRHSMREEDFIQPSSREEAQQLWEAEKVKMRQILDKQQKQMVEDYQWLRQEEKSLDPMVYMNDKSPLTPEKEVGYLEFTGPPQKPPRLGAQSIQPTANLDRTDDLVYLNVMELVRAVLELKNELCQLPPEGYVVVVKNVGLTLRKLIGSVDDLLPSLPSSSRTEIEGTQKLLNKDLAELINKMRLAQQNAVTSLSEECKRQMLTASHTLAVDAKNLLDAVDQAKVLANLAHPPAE
Chain of LIM domain kinase 1 (Homo sapiens) (P53667 whole entry, looked up, the tested form may be a part): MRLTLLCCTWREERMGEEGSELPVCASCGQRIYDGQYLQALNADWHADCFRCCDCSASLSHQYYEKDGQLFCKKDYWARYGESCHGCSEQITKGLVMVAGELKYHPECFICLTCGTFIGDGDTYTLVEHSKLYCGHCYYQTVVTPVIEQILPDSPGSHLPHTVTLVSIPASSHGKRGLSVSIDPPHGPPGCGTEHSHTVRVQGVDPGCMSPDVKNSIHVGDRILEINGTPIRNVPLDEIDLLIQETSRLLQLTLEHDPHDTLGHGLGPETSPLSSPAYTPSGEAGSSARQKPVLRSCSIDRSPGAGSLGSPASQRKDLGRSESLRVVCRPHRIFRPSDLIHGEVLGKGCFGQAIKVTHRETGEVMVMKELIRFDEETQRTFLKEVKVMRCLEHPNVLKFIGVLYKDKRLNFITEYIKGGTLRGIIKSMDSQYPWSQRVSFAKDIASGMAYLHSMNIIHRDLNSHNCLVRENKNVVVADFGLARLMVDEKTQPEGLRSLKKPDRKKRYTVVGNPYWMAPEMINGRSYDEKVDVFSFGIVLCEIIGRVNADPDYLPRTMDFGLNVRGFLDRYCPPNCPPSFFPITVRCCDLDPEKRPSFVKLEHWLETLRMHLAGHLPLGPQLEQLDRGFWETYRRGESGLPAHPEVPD
Chain of RAC-alpha serine/threonine-protein kinase (Homo sapiens) (P31749 whole entry): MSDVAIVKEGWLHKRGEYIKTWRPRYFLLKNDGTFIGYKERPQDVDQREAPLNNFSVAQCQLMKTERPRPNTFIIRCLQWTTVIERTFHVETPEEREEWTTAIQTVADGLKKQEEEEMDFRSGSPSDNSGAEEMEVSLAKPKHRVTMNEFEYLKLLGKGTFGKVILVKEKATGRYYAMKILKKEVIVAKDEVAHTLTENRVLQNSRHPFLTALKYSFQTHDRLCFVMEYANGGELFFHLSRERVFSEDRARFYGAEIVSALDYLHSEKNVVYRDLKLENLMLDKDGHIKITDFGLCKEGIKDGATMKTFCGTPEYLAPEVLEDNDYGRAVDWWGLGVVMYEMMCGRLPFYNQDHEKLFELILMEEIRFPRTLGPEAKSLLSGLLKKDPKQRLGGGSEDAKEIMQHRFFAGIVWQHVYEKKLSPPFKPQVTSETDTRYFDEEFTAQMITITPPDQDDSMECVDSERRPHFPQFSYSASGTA

| Structure (SMILES) | inhibition [1] | inhibition [2] | inhibition [3] | inhibition [4] | inhibition [5] | inhibition [6] | inhibition [7] | inhibition [8] |
| --- | --- | --- | --- | --- | --- | --- | --- | --- |
| C[C@]1(O)C[C@@H](c2nc(-c3ccc4ccc(-c5ccccc5)nc4c3)c3c(N)nccn32)C1 | 11% | -2.4% | – | – | – | – | – | – |
| C[C@@]1(C(=O)Nc2ccc(F)nc2)CCCN1c1nc(Nc2cc(C3CC3)n[nH]2)c2cccn2n1 | – | – | 1.81% | -7.91% | -7.35% | 1.89% | -6.12% | 0.58% |
